Data on 11 compounds can be found in ChEMBL document CHEMBL1201862, “PubChem BioAssay data set” (2004).

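The compound was tested at five concentrations on cells cultured in 96-well plates, with a 48-hour exposure period. The concentration for 50% growth inhibition is given as GI50.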 Active and inactive are the calls of the source. Cut-off read from the data, not from the text of the source: active = GI50 up to about 1.1 µM and inactive = higher.

Among the test systems are A549; HCT-15; HT-29; K562; KM12; LOX IMVI; M14; NCI-H522; RXF 393; SF-539; SK-MEL-28; SNB-19; SR; U-251; HOP-92.
What all share (assay): NCI tumour cell line growth inhibition, 48 h

On to `COc1ccc(-c2onc(-c3c(C)cc(C)cc3C)c2C2=NCCCN2)cc1`, for which the GI50 in the assay on A549 was 65.8 µM (inactive); with HCT-15, 39.1 µM; in the assay with HT-29 it was 31.2 µM (inactive); in the assay with K562, 28.8 µM (inactive); with KM12 it was 46.3 µM (inactive); in the assay with LOX IMVI, 43.3 µM (inactive). For the same compound, the GI50 with M14 is 21.1 µM (inactive); with NCI-H522, 14.3 µM (inactive); in the assay with RXF 393 it was 47.3 µM (inactive); in the assay with SF-539, 21.6 µM (inactive); in the assay with SK-MEL-28 it was 36.4 µM (inactive); with SNB-19 it was 35.1 µM (inactive). Besides, the GI50 with SR is 36.6 µM (inactive); with U-251, 22.3 µM (inactive).

Take `COc1ccc(CC(=O)NCCc2ccc(OC)c(OC)c2OC)cc1`: the GI50 is 30.1 µM (inactive) in the assay with A549; > 100 µM (inactive) with HT-29; > 100 µM (inactive) in the assay on K562; > 100 µM (inactive) in the assay with KM12; > 100 µM (inactive) in the assay with M14; > 100 µM (inactive) in the assay with NCI-H522. Moreover, the GI50 is > 100 µM (inactive) in the assay on RXF 393; 16.4 µM (inactive) in the assay with SF-539; > 100 µM (inactive) with SK-MEL-28; > 100 µM (inactive) with SNB-19; > 100 µM (inactive) with SR; > 100 µM (inactive) with U-251.

As for `NC(=S)N/C=C1\C(=O)Oc2ccccc2C1=O`, the GI50 is 97.1 µM (inactive) with A549; 48 µM in the assay on HCT-15; 35.5 µM (inactive) with HOP-92; > 100 µM (inactive) in the assay on HT-29; > 100 µM (inactive) in the assay with K562; > 100 µM (inactive) in the assay with KM12. The GI50 in the assay with LOX IMVI was > 100 µM (inactive); in the assay on M14, 48.5 µM (inactive); in the assay on NCI-H522, 69.2 µM (inactive); in the assay on RXF 393, 18.4 µM (inactive); in the assay on SF-539 it was 34 µM (inactive); with SK-MEL-28, > 100 µM (inactive). The GI50 in the assay on SNB-19 was 68.5 µM (inactive); in the assay on U-251, 43.8 µM (inactive).

Consider `O=[N+]([O-])c1ccc(/C=N/C2CCCCC2)cc1`, for which the GI50 in the assay with A549 was > 100 µM (inactive); in the assay on HCT-15, over 100 µM; in the assay with HOP-92, > 100 µM (inactive); with HT-29, > 100 µM (inactive); in the assay on K562, > 100 µM (inactive); in the assay on KM12, > 100 µM (inactive). Also, the GI50 in the assay on LOX IMVI, with M14, in the assay with RXF 393, in the assay on SF-539, in the assay on SK-MEL-28 and in the assay with SNB-19 was > 100 µM (inactive) throughout. Further, the GI50 with SR and in the assay with U-251 was > 100 µM (inactive) each time.

For `O=S1(=O)OCCOS(=O)(=O)C1(Cl)Cl`, the GI50 was > 100 µM (inactive) in the assay on A549; 97.5 µM (inactive) with HOP-92; > 100 µM (inactive) in the assay on HT-29; > 100 µM (inactive) with K562; > 100 µM (inactive) with KM12; 61.4 µM (inactive) with LOX IMVI. For the same compound, the GI50 in the assay on M14 was > 100 µM (inactive); in the assay on NCI-H522 it was > 100 µM (inactive); with SF-539, > 100 µM (inactive); in the assay on SK-MEL-28, > 100 µM (inactive); in the assay on SNB-19, 91.4 µM (inactive); with SR, 35.6 µM (inactive).

Consider `CCO/C=C1\N=C(c2ccccc2Br)OC1=O`, for which the GI50 is > 100 µM (inactive) in the assay with A549; over 100 µM in the assay on HCT-15; > 100 µM (inactive) in the assay on HOP-92; > 100 µM (inactive) in the assay on HT-29; > 100 µM (inactive) in the assay on K562; > 10 µM (inactive) in the assay with KM12. For the same compound, the GI50 in the assay with LOX IMVI, in the assay with M14, in the assay with NCI-H522, in the assay on RXF 393, in the assay on SF-539 and in the assay with SK-MEL-28 was > 100 µM (inactive) throughout. Moreover, the GI50 in the assay on SNB-19 was > 100 µM (inactive).

On to `CCCCCCC(/C=N/O)C(C)(O)CCC` (stereo unspecified), for which the GI50 was > 100 µM (inactive) with A549; over 100 µM in the assay with HCT-15; > 100 µM (inactive) in the assay on HT-29; 84.3 µM (inactive) in the assay with K562; > 100 µM (inactive) in the assay with KM12; > 100 µM (inactive) in the assay on LOX IMVI. Besides, the GI50 in the assay with M14 was > 100 µM (inactive); in the assay with NCI-H522, 37.7 µM (inactive); with RXF 393 it was > 100 µM (inactive); in the assay on SF-539 it was > 100 µM (inactive); in the assay with SK-MEL-28, > 100 µM (inactive); in the assay with SNB-19, > 100 µM (inactive). The GI50 in the assay with U-251 was > 100 µM (inactive).

On to `CCOc1ccc(NC(=O)CC2SC(Nc3ccc(C)cc3C)=NC2=O)cc1` (stereo unspecified), for which the GI50 was > 100 µM (inactive) in the assay on A549; over 100 µM in the assay on HCT-15; > 100 µM (inactive) with HOP-92; > 100 µM (inactive) in the assay on HT-29; 52 µM (inactive) in the assay on K562; > 100 µM (inactive) with LOX IMVI. In addition, the GI50 with M14 is > 100 µM (inactive); in the assay with NCI-H522, 5.38 µM (inactive); in the assay with RXF 393 it was > 100 µM (inactive); in the assay on SF-539, 26.7 µM (inactive); in the assay with SK-MEL-28, > 100 µM (inactive); in the assay with SNB-19, 54.3 µM (inactive). Besides, the GI50 in the assay with SR is 29.5 µM (inactive); in the assay on U-251, 36 µM (inactive).

In the case of `COC(=O)C(C(=O)C(=O)Nc1nnc(S)[nH]1)c1csc(N)n1` (stereo unspecified), the GI50 with A549 is > 100 µM (inactive); in the assay on HCT-15, over 100 µM; in the assay with HT-29, > 100 µM (inactive); with K562, > 100 µM (inactive); in the assay on KM12, > 100 µM (inactive); in the assay on LOX IMVI it was > 100 µM (inactive). In addition, the GI50 in the assay on M14, with NCI-H522, with RXF 393, with SF-539, in the assay with SK-MEL-28 and in the assay on SNB-19 was > 100 µM (inactive) in each case. Moreover, the GI50 in the assay on SR and with U-251 was > 100 µM (inactive) each time.

In the case of `COc1cc(/C=N\O[Si](C)(C)C(C)(C)C)ccc1O[Si](C)(C)C(C)(C)C`, the GI50 in the assay on A549 was > 100 µM (inactive); in the assay with HCT-15 it was 27.4 µM; in the assay on HOP-92, 25.4 µM (inactive); in the assay on HT-29, 47.3 µM (inactive); in the assay on K562, 32.5 µM (inactive); in the assay on KM12 it was 83.6 µM (inactive). The GI50 is 26.6 µM (inactive) in the assay with LOX IMVI; 92.5 µM (inactive) with M14; 36 µM (inactive) in the assay with RXF 393; 41.7 µM (inactive) with SF-539; 76.9 µM (inactive) in the assay with SNB-19; 30 µM (inactive) with U-251.

Regarding `COc1cc(C(C)c2cc3c(cc2OCCCCCOc2cc4c(cc2C(C)c2cc(OC)c(OC)c(OC)c2)OCO4)OCO3)cc(OC)c1OC` (stereo unspecified), the GI50 is > 100 µM (inactive) in the assay with A549; over 100 µM with HCT-15; > 100 µM (inactive) in the assay on HT-29; > 100 µM (inactive) in the assay on K562; > 100 µM (inactive) in the assay on KM12; > 100 µM (inactive) in the assay with LOX IMVI. Further, the GI50 in the assay with M14, in the assay on NCI-H522, in the assay on RXF 393, with SF-539, in the assay on SK-MEL-28 and in the assay with SNB-19 was > 100 µM (inactive) each time. Further, the GI50 in the assay with SR and in the assay on U-251 was > 100 µM (inactive) in each case.
